The text below walks through data of PMC7432809, “Antimicrobial Activity of Small Synthetic Peptides Based on the Marine Peptide Turgencin A: Prediction of Antimicrobial Peptide Sequences in a Natural Peptide and Strategy for Optimization of Potency” (International Journal of Molecular Sciences, 2020).

Common to all, as to format: cell-based
In one assay the test system is G- strains. Nature of the assay: Antibacterial assay, MIC range over G- strains. The settings on record: range over the two G- test strains. How it is done:
(§1) The synthesized peptides were screened for antibacterial activity against five strains of G+ bacteria: B. subtilis (Bs, ATCC 23857), C. glutamicum (Cg, ATCC 13032), S. aureus (Sa, ATCC 9144), Micrococcus luteus (Ml), B. megaterium (Bm) (the last two were obtained from professor Olaf B. Styrvold, UiT The Arctic University of Norway).
(§2) Two strains of G- bacteria, P. aeruginosa (Pa, ATCC 27853) and E. coli (Ec, ATCC 25922), were also used. Cultures stored at -80 °C in glycerol were transferred to Müller–Hinton plates (MH, Difco Laboratories, Detroit, MI, USA) and incubated for 24 h at 35 °C. Colonies of each strain were transferred to 5 mL liquid MH medium and left shaking (600 rpm) at room temperature overnight. An aliquot of actively growing bacteria (20 µL) was inoculated in 5 mL MH medium and left shaking for 2 h at room temperature. In order to have a sensitive bioassay, the bacterial cultures were diluted with medium to only 2.5–3 × 10^4 bacteria/mL and an aliquot of 50 µL was added to each well in 96 microwell plates (Thermo Fisher Scientific, Roskilde, Denmark) preloaded with peptide solution (50 µL). The antibacterial assays were performed as previously described. The microtiter plates were incubated for 24 h at 35 °C with optical density (595 nm) recorded every hour using an Envision 2103 multilabel reader, controlled by a Wallac Envision manager (PerkinElmer, Waltham, MA, USA). […]

The test system of another assay is Aureobasidium pullulans. Kind of assay: microbe, parasite or virus in culture. Conditions: 48 h. As for the experimental part:
(§3) StAMP-1–11 were screened for antifungal activity against C. albicans (Ca, ATCC 10231), A. pullulans (Ap) and Rhodotorula sp. (Rh) (the last two were obtained from professor Arne Tronsmo, The Norwegian University of Life Sciences, Ås, Norway). The antifungal assay was performed as previously described with a few modifications. Briefly, fungal spores were dissolved in potato dextrose broth (Difco Laboratories) with 2% D(+)-glucose (Merck, Darmstadt, Germany) to a concentration of 4 × 10^5 spores/mL. The spores (50 µL) were inoculated on 96 microwell plates (Thermo Fisher Scientific) containing the synthetic peptides (50 µL) and controls (water or antibiotic). The peptides were diluted in MQ-H2O at final concentrations ranging from 250–3.9 µg/mL in two-fold serial dilutions. Triclosan (Sigma-Aldrich, Steinheim, Germany) was used as a positive (antifungal) control (32–0.25 µg/mL), and MQ-H2O as a negative (growth) control. Cultures were grown in room temperature for 24 h (Ca) and 48 h (Ap and Rh). Growth inhibition was determined by measuring OD values at 600 nm by a microplate reader (Synergy H1 Hybrid Multi-Mode Reader, BioTek, Winooski, VT, USA). […] All experiments were done in triplicate.

Another assay relates to Rhodotorula sp. Nature of the assay: microbe, parasite or virus in culture. The settings on record: 48 h. As for the experimental part: as §3
In assay [1] the test system is Candida albicans (ATCC 10231). Kind of assay: microbe, parasite or virus in culture. The settings on record: ATCC 10231, 24 h. How it is done:
as §3

Assay [2] concerns Staphylococcus aureus (ATCC 9144). Kind of assay: microbe, parasite or virus in culture. Conditions: ATCC 9144, 24 h. As for the experimental part:
as §1
(§4) Two strains of G- bacteria, P. aeruginosa (Pa, ATCC 27853) and E. coli (Ec, ATCC 25922), were also used. Cultures stored at -80 °C in glycerol were transferred to Müller–Hinton plates (MH, Difco Laboratories, Detroit, MI, USA) and incubated for 24 h at 35 °C. Colonies of each strain were transferred to 5 mL liquid MH medium and left shaking (600 rpm) at room temperature overnight. An aliquot of actively growing bacteria (20 µL) was inoculated in 5 mL MH medium and left shaking for 2 h at room temperature. In order to have a sensitive bioassay, the bacterial cultures were diluted with medium to only 2.5–3 × 10^4 bacteria/mL and an aliquot of 50 µL was added to each well in 96 microwell plates (Thermo Fisher Scientific, Roskilde, Denmark) preloaded with peptide solution (50 µL). The antibacterial assays were performed as previously described. The microtiter plates were incubated for 24 h at 35 °C with optical density (595 nm) recorded every hour using an Envision 2103 multilabel reader, controlled by a Wallac Envision manager (PerkinElmer, Waltham, MA, USA). The minimum inhibitory concentration (MIC) was defined as the sample concentration showing an optical density less than 10% of the negative (growth) control, consisting of bacteria and MQ-H2O. Oxytetracycline (concentrations ranging from 20–0.02 µg/mL, Sigma-Aldrich) and indolicidin (concentration ranging from 200–0.2 µg/mL, Sigma-Aldrich) served as a positive (inhibition) control. The synthetic peptides were tested for antibacterial activity in concentrations ranging from 250 to 0.5 µg/mL in two-fold dilutions. All tests were performed in triplicates.

Assay [3] relates to Bacillus subtilis (ATCC 23857). Kind of assay: microbe, parasite or virus in culture. Conditions: ATCC 23857, 24 h. How it is done:
as §1, §4

Assay [4] has as its system Corynebacterium glutamicum (ATCC 13032). Nature of the assay: microbe, parasite or virus in culture. Conditions: ATCC 13032, 24 h. How it is done: as §1, §4
The subject of a further assay is Micrococcus luteus. Kind of assay: microbe, parasite or virus in culture. The settings on record: 24 h. How it is done: as §1, §4
For a further assay, the system named is Bacillus megaterium. Kind of assay: microbe, parasite or virus in culture. Conditions: Bacillus, 24 h. As for the experimental part: as §1, §4
A further assay has as its system G+ strains. Kind of assay: Antibacterial assay, MIC range over G+ strains. Conditions: range over the five G+ test strains. As for the experimental part: as §1, §2
The test system of assay [5] is Pseudomonas aeruginosa (ATCC 27853). Kind of assay: microbe, parasite or virus in culture. Conditions: ATCC 27853, 24 h. How it is done: as §4
The test system of assay [6] is Escherichia coli (ATCC 25922). Kind of assay: microbe, parasite or virus in culture. Conditions: ATCC 25922, 24 h. As for the experimental part:
as §4

The test system of assay [7] is all seven bacterial test strains. Conditions: 24 h. As for the experimental part: as §1, §2

Where no end group is shown, it is not given here.

Take GKKPWWWKAK-NH2 [StAMP-7]: the “MIC values, range against G- strains” value with G- strains is 31.3 to 250 µg/mL. For the same substance, the “Antimicrobial Activity (MIC) Ap” value in the assay on Aureobasidium pullulans was determined as 15.6 µg/mL. Further, the “Antimicrobial Activity (MIC) Rh” value in the assay with Rhodotorula sp. was found to be 15.6 µg/mL. Further, the “Antimicrobial Activity (MIC) Ca” value in [1] is recorded as 31.3 µg/mL. The “Antimicrobial Activity (MIC) Sa” value in assay [2] is 125 µg/mL. The “Antimicrobial Activity (MIC) Bs” value in assay [3] was 3.9 µg/mL. In addition, the “Antimicrobial Activity (MIC) Cg” value in [4] worked out at 2.0 µg/mL. Besides, the “Antimicrobial Activity (MIC) Ml” value in the assay with Micrococcus luteus was 31.3 µg/mL. For the same substance, in the assay with Bacillus megaterium, the “Antimicrobial Activity (MIC) Bm” value worked out at 1.0 µg/mL. The “MIC values, range against G+ strains” value against G+ strains was 1.0 to 125 µg/mL. Further, the “Antimicrobial Activity (MIC) Pa” value in assay [5] is reported as 250 µg/mL. Besides, the “Antimicrobial Activity (MIC) Ec” value in assay [6] was 31.3 µg/mL.

Take GKKWGGWKAK-NH2 [StAMP-2]: the “Antimicrobial Activity (MIC) Ap” value with Aureobasidium pullulans came to 62.5 µg/mL. Also, in the assay with Rhodotorula sp., the “Antimicrobial Activity (MIC) Rh” value was 62.5 µg/mL. In assay [1], the “Antimicrobial Activity (MIC) Ca” value was 125 µg/mL. In addition, in assay [2], the “Antimicrobial Activity (MIC) Sa” value was more than 250 µg/mL. Besides, in assay [3], the “Antimicrobial Activity (MIC) Bs” value worked out at 125 µg/mL. Moreover, the “Antimicrobial Activity (MIC) Cg” value in [4] is on record as 31.3 µg/mL. Besides, the “Antimicrobial Activity (MIC) Ml” value with Micrococcus luteus was determined as 250 µg/mL. Further, in the assay with Bacillus megaterium, the “Antimicrobial Activity (MIC) Bm” value was 3.9 µg/mL. The “Antimicrobial Activity (MIC) Pa” value in assay [5] is recorded as more than 250 µg/mL. The “Antimicrobial Activity (MIC) Ec” value in assay [6] is given as more than 250 µg/mL.

For the substance GKKWGWWKAK-NH2 [StAMP-6], in the assay on Aureobasidium pullulans, the “Antimicrobial Activity (MIC) Ap” value was determined as 62.5 µg/mL. The “Antimicrobial Activity (MIC) Rh” value in the assay with Rhodotorula sp. is reported as 31.3 µg/mL. Besides, the “Antimicrobial Activity (MIC) Ca” value in assay [1] amounted to 62.5 µg/mL. The “Antimicrobial Activity (MIC) Sa” value in assay [2] is recorded as 250 µg/mL. The “Antimicrobial Activity (MIC) Bs” value in assay [3] was determined as 3.9 µg/mL. Besides, in assay [4], the “Antimicrobial Activity (MIC) Cg” value worked out at 3.9 µg/mL. For the same substance, the “Antimicrobial Activity (MIC) Ml” value in the assay with Micrococcus luteus is listed as 62.5 µg/mL. Further, in the assay on Bacillus megaterium, the “Antimicrobial Activity (MIC) Bm” value turned out to be 1.0 µg/mL. Further, the “Antimicrobial Activity (MIC) Pa” value in assay [5] was more than 250 µg/mL. Further, the “Antimicrobial Activity (MIC) Ec” value in assay [6] came out at 62.5 µg/mL.

For the substance GKKWWGWKAK-NH2 [StAMP-5], the “Antimicrobial Activity (MIC) Ap” value in the assay with Aureobasidium pullulans is listed as 31.3 µg/mL. The “Antimicrobial Activity (MIC) Rh” value in the assay with Rhodotorula sp. turned out to be 15.6 µg/mL. For the same substance, in assay [1], the “Antimicrobial Activity (MIC) Ca” value came to 31.3 µg/mL. The “Antimicrobial Activity (MIC) Sa” value in assay [2] is on record as more than 250 µg/mL. Moreover, in assay [3], the “Antimicrobial Activity (MIC) Bs” value worked out at 15.6 µg/mL. Moreover, the “Antimicrobial Activity (MIC) Cg” value in assay [4] stood at 2.0 µg/mL. Moreover, in the assay on Micrococcus luteus, the “Antimicrobial Activity (MIC) Ml” value is on record as 15.6 µg/mL. Besides, the “Antimicrobial Activity (MIC) Bm” value with Bacillus megaterium is on record as 1.0 µg/mL. Also, the “Antimicrobial Activity (MIC) Pa” value in [5] is given as 250 µg/mL. In addition, the “Antimicrobial Activity (MIC) Ec” value in [6] amounted to 31.3 µg/mL.

As for GRRPLLLRAR-NH2 [StAMP-11], the “Antimicrobial Activity (MIC) Ap” value in the assay with Aureobasidium pullulans was determined as 250 µg/mL. Moreover, the “Antimicrobial Activity (MIC) Rh” value with Rhodotorula sp. is recorded as 31.3 µg/mL. In addition, the “Antimicrobial Activity (MIC) Ca” value in assay [1] is recorded as 125 µg/mL. Further, the “Antimicrobial Activity (MIC) Sa” value in [2] was more than 250 µg/mL. For the same substance, in assay [3], the “Antimicrobial Activity (MIC) Bs” value was more than 250 µg/mL. Moreover, the “Antimicrobial Activity (MIC) Cg” value in [4] worked out at 31.3 µg/mL. Also, the “Antimicrobial Activity (MIC) Ml” value in the assay on Micrococcus luteus is 62.5 µg/mL. Also, in the assay with Bacillus megaterium, the “Antimicrobial Activity (MIC) Bm” value was 7.8 µg/mL. Also, in [5], the “Antimicrobial Activity (MIC) Pa” value is given as more than 250 µg/mL. Further, in assay [6], the “Antimicrobial Activity (MIC) Ec” value is recorded as more than 250 µg/mL.

On to GRRPWWWRAR-NH2 [StAMP-9], for which, in [7], the “MIC values, range against all seven bacterial test strains” value fell in the range of 1.0 to 31.3 µg/mL. The “Antimicrobial Activity (MIC) Ap” value in the assay on Aureobasidium pullulans is on record as 31.3 µg/mL. The “Antimicrobial Activity (MIC) Rh” value with Rhodotorula sp. came out at 15.6 µg/mL. Further, the “Antimicrobial Activity (MIC) Ca” value in assay [1] was 31.3 µg/mL. For the same substance, in assay [2], the “Antimicrobial Activity (MIC) Sa” value stood at 7.8 µg/mL. For the same substance, the “Antimicrobial Activity (MIC) Bs” value in [3] is recorded as 3.9 µg/mL. Moreover, the “Antimicrobial Activity (MIC) Cg” value in [4] stood at 2.0 µg/mL. Moreover, the “Antimicrobial Activity (MIC) Ml” value in the assay with Micrococcus luteus worked out at 3.9 µg/mL. Further, the “Antimicrobial Activity (MIC) Bm” value in the assay on Bacillus megaterium came to 1.0 µg/mL. Besides, the “Antimicrobial Activity (MIC) Pa” value in assay [5] is 31.3 µg/mL. Besides, the “Antimicrobial Activity (MIC) Ec” value in assay [6] is on record as 7.8 µg/mL.

On to GRRWWWWRAR-NH2 [StAMP-10], for which, in the assay with Aureobasidium pullulans, the “Antimicrobial Activity (MIC) Ap” value worked out at 62.5 µg/mL. The “Antimicrobial Activity (MIC) Rh” value in the assay on Rhodotorula sp. was 15.6 µg/mL. In addition, the “Antimicrobial Activity (MIC) Ca” value in assay [1] is on record as 62.5 µg/mL. The “Antimicrobial Activity (MIC) Sa” value in assay [2] is 62.5 µg/mL. Further, in [3], the “Antimicrobial Activity (MIC) Bs” value was 7.8 µg/mL. In assay [4], the “Antimicrobial Activity (MIC) Cg” value is 7.8 µg/mL. The “Antimicrobial Activity (MIC) Ml” value with Micrococcus luteus amounted to 15.6 µg/mL. Moreover, the “Antimicrobial Activity (MIC) Bm” value with Bacillus megaterium is recorded as 3.9 µg/mL. In [5], the “Antimicrobial Activity (MIC) Pa” value is listed as 31.3 µg/mL. The “Antimicrobial Activity (MIC) Ec” value in assay [6] came to 15.6 µg/mL.
